# Results taken from patent US11925632B2, “Isoquinoline derivatives for use in treating GLUT1 deficiency syndrome” (GLIAPHARM SA, priority 2019, dated 2024).
# Tested on: astrocytes transfected with scramble siRNA
# Experiment: Lactate secretion, scramble siRNA astrocytes
# Format: cell-based, mouse
# Settings: vs vehicle
# Description: Secretion of L-lactate was measured in the extracellular medium of 96-well plated astrocytes after 90 min stimulation (at 37° C., in 5% CO2/95% air conditions) with Vehicle (DMSO), the compounds of the invention (100 nM to 100 μM) or positive control. […] Stimulation medium was composed of D5030 medium complemented with 5 mM D-glucose and 44 mM sodium bicarbonate, pH 7.2. To quantify lactate concentrations in the extracellular medium, 200 μl of a 0.2M Glycine-semicarbazide buffer (pH 10) containing 3 mM NAD and 14 U/ml LDH was added to each well of a 96-well plate containing 30 μl aliquots of extracellular medium. Samples were incubated at 37° C. for 1 h. Fluorescence intensity (340 nm excitation/450 nm emission), which represents the amount of NADH produced, was measured, and lactate concentration values were determined relative to a standard curve of L-lactate concentrations.
# Scramble and GLUT1 siRNA sequences were as following:
# Cells were grown in transfection medium for 3 days at 37° C. in a humidified atmosphere containing 5% CO2/95% air. After 3 days, transfection medium was replaced with DMEM D5030 supplemented with 44 mM NaHCO3 and 5 mM D-Glucose (1 ml per well).
# Lactate secretion after treatment with Veh or compound of the invention (1) was measured in astrocytes transfected with scramble siRNA or GLUT1 siRNA (FIG. 4B).
smiles,measurement,value
"COc1cc2ccnc(Nc3ccc(OC(F)(F)F)cc3)c2cc1OC [Example 1, 6,7-dimethoxy-N-(4-(trifluoromethoxy)phenyl)isoquinolin-1-amine]",Lactate secretion,significantly enhances lactate secretion
